Laboratory results taken from PubChem BioAssay (NCI).
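GI50 is the concentration that inhibits growth by half. TGI denotes the concentration required for complete inhibition of growth.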

Key:
Test in all cases: NCI anticancer screen, dose series, 384-well format
[1] = system: DU-145 prostate
[2] = system: K-562 leukemia
[3] = system: NCI-H226 lung
[4] = system: A549 NSCLC
[5] = system: SK-OV-3 ovarian
[6] = system: MALME-3M melanoma
[7] = system: MOLT-4 leukemia
[8] = system: OVCAR-3 ovarian
[9] = system: HCC-2998 colon
[10] = system: SK-MEL-5 melanoma
[11] = system: UO-31 renal
[12] = system: MDA-MB-468 breast
[13] = system: CCRF-CEM leukemia
[14] = system: HCT-15 colon
[15] = system: MDA-MB-435 melanoma
[16] = system: HOP-62 NSCLC
[17] = system: SNB-19 CNS
[18] = system: BT-549 breast
[19] = system: SW-620 colon
[20] = system: HS 578T breast
[21] = system: NCI-H460 NSCLC
[22] = system: SF-295 CNS
[23] = system: SNB-75 CNS
[24] = system: M14 melanoma
[25] = system: HCT-116 colon
[26] = system: EKVX NSCLC
[27] = system: ACHN renal
[28] = system: IGROV1 ovarian
[29] = system: T-47D breast
[30] = system: OVCAR-5 ovarian
[31] = system: OVCAR-8 ovarian
[32] = system: MCF7 breast
[33] = system: HT29 colon
[34] = system: OVCAR-4 ovarian
[35] = system: LOX IMVI melanoma
[36] = system: SF-539 CNS
[37] = system: A498 renal
[38] = system: TK-10 renal
[39] = system: RPMI-8226 leukemia
[40] = system: CAKI-1 renal
[41] = system: NCI-H522 lung
[42] = system: NCI/ADR-RES ovarian
[43] = system: KM12 colon
[44] = system: NCI-H23 lung
[45] = system: 786-0 renal
[46] = system: SF-268 CNS
[47] = system: PC-3 prostate
[48] = system: HOP-92 NSCLC
[49] = system: UACC-257 melanoma
[50] = system: U251 glioblastoma
[51] = system: UACC-62 melanoma
[52] = system: SN12C renal
[53] = system: HL-60(TB) leukemia
[54] = system: SK-MEL-28 melanoma
[55] = system: NCI-H322M lung

With `CC[C@@H](C)Nc1cc(C(=O)NC2CC3CCC(C2)N3c2ccc(C(=O)C3CC3)cn2)c(C)cc1C(N)=O` (some centres undefined) the GI50 [1] was 0.0238 µM, the TGI [1] was 0.732 µM and the GI50 [2] was 0.0199 µM. It also gave a TGI [2] of 0.205 µM, a GI50 [3] of 0.0303 µM and a TGI [3] of 0.171 µM. The GI50 [4] was less than 0.01 µM, the TGI [4] was 11.7 µM and the GI50 [5] was 0.0249 µM. The TGI [5] was 15 µM, the GI50 [6] was 0.0199 µM and the TGI [6] was 0.0785 µM. The GI50 [7] was less than 0.01 µM, the TGI [7] was 0.0176 µM and the GI50 [8] was 0.0245 µM. The TGI [8] was 0.0841 µM, the GI50 [9] was less than 0.01 µM and the TGI [9] was 0.0396 µM. The GI50 [10] was 0.0197 µM, the TGI [10] was 10.6 µM and the GI50 [11] was 0.0428 µM. It also gave a TGI [11] of 67.7 µM, a GI50 [12] of 0.0179 µM and a TGI [12] of 0.0428 µM. It also gave a GI50 [13] of less than 0.01 µM, a TGI [13] of 0.037 µM and a GI50 [14] of 0.0361 µM. The TGI [14] was 15 µM, the GI50 [15] was 0.0626 µM and the TGI [15] was 23.3 µM. The GI50 [16] was 0.0295 µM, the TGI [16] was 13.7 µM and the GI50 [17] was 0.0416 µM. It also gave a TGI [17] of 17.3 µM, a GI50 [18] of 0.0125 µM and a GI50 [19] of 0.0262 µM. The TGI [19] was 0.0788 µM, the GI50 [20] was 0.0403 µM and the TGI [20] was 0.236 µM. It also gave a GI50 [21] of less than 0.01 µM, a TGI [21] of 0.0243 µM and a GI50 [22] of 0.0242 µM. The TGI [22] was 0.0653 µM, the GI50 [23] was 0.0824 µM and the TGI [23] was 0.464 µM. For the same molecule, the GI50 [24] was 0.031 µM, the TGI [24] was 12.8 µM and the GI50 [25] was 0.0368 µM. The TGI [25] was 14.9 µM, the GI50 [26] was 0.0367 µM and the TGI [26] was 17.7 µM. It also gave a GI50 [27] of 0.045 µM, a TGI [27] of 28.4 µM and a GI50 [28] of 0.013 µM. For the same molecule, the TGI [28] was 0.0859 µM, the GI50 [29] was 0.0122 µM and the TGI [29] was 0.0528 µM. It also gave a GI50 [30] of 0.0399 µM, a TGI [30] of 30.8 µM and a GI50 [31] of 0.0206 µM. It also gave a TGI [31] of 0.0446 µM, a GI50 [32] of less than 0.01 µM and a TGI [32] of 0.237 µM. The GI50 [33] was less than 0.01 µM, the TGI [33] was 11.5 µM and the GI50 [34] was 6.75 µM. It also gave a TGI [34] of 23.5 µM, a GI50 [35] of 0.0166 µM and a TGI [35] of 0.0317 µM. It also gave a GI50 [36] of 0.02 µM, a TGI [36] of 0.0511 µM and a GI50 [37] of 0.0233 µM. The TGI [37] was 17.6 µM, the GI50 [38] was 0.042 µM and the TGI [38] was 32.8 µM. The GI50 [39] was 0.0251 µM, the TGI [39] was 0.0856 µM and the GI50 [40] was 0.0462 µM. For the same molecule, the TGI [40] was 19.2 µM, the GI50 [41] was 0.0194 µM and the TGI [41] was 0.0463 µM. For the same molecule, the GI50 [42] was 0.277 µM, the TGI [42] was 0.782 µM and the GI50 [43] was 0.0199 µM. The TGI [43] was 1.62 µM, the GI50 [44] was 0.0176 µM and the TGI [44] was 0.0536 µM. For the same molecule, the GI50 [45] was 0.0332 µM, the TGI [45] was 11.7 µM and the GI50 [46] was 0.011 µM. For the same molecule, the TGI [46] was 0.0363 µM, the GI50 [47] was 0.0283 µM and the TGI [47] was 0.0859 µM. For the same molecule, the GI50 [48] was 0.0285 µM, the TGI [48] was 0.0708 µM and the GI50 [49] was 0.0621 µM. It also gave a TGI [49] of 25.1 µM, a GI50 [50] of 0.0232 µM and a TGI [50] of 0.0656 µM. The GI50 [51] was 0.0264 µM, the TGI [51] was 0.0811 µM and the GI50 [52] was 0.0248 µM. The TGI [52] was 0.0766 µM, the GI50 [53] was 0.0126 µM and the TGI [53] was 0.0263 µM. For the same molecule, the GI50 [54] was 0.0437 µM, the TGI [54] was 21.6 µM and the GI50 [55] was 0.0275 µM. It also gave a TGI [55] of 19.1 µM.
